Laboratory results from PMC3866371 (Neuropharmacology, 2013).
Where two headings read alike, the source gives them in different places.

Key:
human α3β4α5 nAChR [1] = target: T1, human α3β4α5 nAChR (Homo sapiens, UniProt P30926+P32297); format: binding
human α3β4α5 nAChR [2] = target: T1, human α3β4α5 nAChR; experiment: Competition binding with [^125I]AT-1012 as radioligand, HEK cell membranes
rat α4β2 nAChR = rat α4β2 nAChR (Rattus norvegicus, UniProt P09483+P12390); experiment: Competition binding with [^3H]epibatidine as radioligand, HEK cell membranes
rat α3β4 nAChR [3] = target: T2, rat α3β4 nAChR (Rattus norvegicus, UniProt P04757+P12392); experiment: Competition binding with [^125I]AT-1012 as radioligand, HEK cell membranes
rat α3β4 nAChR [4] = target: T2, rat α3β4 nAChR; experiment: Competition binding with [^3H]epibatidine as radioligand, HEK cell membranes
α7 nAChR = α7 nAChR (Homo sapiens, UniProt P36544); experiment: Binding at α7 nAChR
[5] = radioligand [^125I]AT-1012, human α3β4α5 nAChR, average ± SD
[6] = read-out: Binding affinity (Ki)
[7] = radioligand [^125I]AT-1012, rat α3β4 nAChR, average ± SD

Compound | Hill coefficient (human α3β4α5 nAChR [1]) | Hill coefficient (human α3β4α5 nAChR [2]; [5]) | Hill coefficient (rat α4β2 nAChR) | Ki (rat α4β2 nAChR; [6]) | Hill coefficient (rat α3β4 nAChR [3]; [7]) | Hill coefficient (rat α3β4 nAChR [4]) | Competition with [^125I]AT-1012 at the human α3β4α5 nAChR (human α3β4α5 nAChR [2]) | Ki (rat α4β2 nAChR) | Inhibition of [^125I]AT-1012 binding (rat α3β4 nAChR [3]; rat α3β4 nAChR) | also measured
CN1C2CCCC1CC(Nc1ccccc1Br)C2 (stereo not drawn) [AT-1001] | 0.82±0.04 | 0.95±0.05 | 0.97±0.11 | 263 ± 9.3 nM | 0.94±0.04 | 0.87±0.19 |  |  |  | 
CN1[C@@H]2CCC[C@H]1CC(Nc1ccccc1I)C2 (stereo partly drawn) [AT-1012] |  | 0.96±0.09 | 0.88±0.02 | 142 ± 2 nM | 1.03±0.01 | 0.77±0.09 |  |  |  | Ki (human α3β4α5 nAChR [1]; read-out: Binding affinity (Ki) at human α3β4α5 nAChR): 1.08 ± 0.05 nM; Ki (human α3β4α5 nAChR [2]; read-out: Binding affinity (Ki) at human α3β4α5 nAChR, radioligand [^125I]AT-1012, average ± SD): 0.68 ± 0.06 nM; Binding selectivity for the α3β4 over α4β2 nAChR (rat α4β2 nAChR): over 100 fold; Selectivity versus the α7 nAChR (α7 nAChR): greater than 100 fold; Ki (rat α3β4 nAChR [4]; [6]): 1.3 ± 0.16 nM
COCC[C@H]1CC2CN3CCc4c([nH]c5ccccc45)[C@](C(=O)OC)(C2)[C@H]13 [Compound 18-MC, 18-methoxycoronaridine] |  |  |  |  |  |  | do not compete | > 10000 nM | do not inhibit | Ki (rat α3β4 nAChR [3]): > 10000 nM; Ki (rat α3β4 nAChR [4]): > 10000 nM
Clc1ccc(C2CC3CCC2N3)cn1 (stereo not drawn) [Epibatidine] | 0.98±0.02 | 0.88±0.02 |  |  | 0.89±0.01 | 1.00±0.06 |  |  |  | 
CNC1(C)C2CCC(C2)C1(C)C (stereo not drawn) [Mecamylamine] |  |  |  |  |  |  | do not compete | > 10000 nM | do not inhibit | 
CN1CCC[C@H]1c1cccnc1 [Nicotine] |  |  |  |  |  |  |  |  |  | Hill coefficient (human α3β4α5 nAChR [1]; radioligand [^3H]epibatidine, human α3β4α5 nAChR, average ± SD): 0.91±0.04; Hill coefficient (human α3β4α5 nAChR [2]): 1305±219 (0.75±0.05); Hill coefficient (rat α4β2 nAChR; radioligand [^3H]epibatidine, rat α4β2 nAChR, average ± SD): 0.95±0.07; Hill coefficient (rat α3β4 nAChR [3]): 467±48 (0.68±0.02); Hill coefficient (rat α3β4 nAChR [4]; radioligand [^3H]epibatidine, rat α3β4 nAChR, average ± SD): 1.08±0.12
